Patent US5876715A, “Antibodies that bind novel carbohydrate ligands (myelorollins) that cause E-selectin dependent cell rolling, and uses thereof” (The Biomembrane Institute, priority 1996, dated 1999)
Entries after “also recorded” stand apart in the source; their conditions may differ.

These substances were tested on E-selectin-expressing CHO cells (assay: Static adhesion assay using 96-well plates coated with gangliosides). Conditions: static conditions; ganglioside coated on 96-well plates (25 to 200 ng); [3H]thymidine-labeled cells; control with mAb E1C.
Assay type: cell-based, Chinese hamster
Excerpt: Adhesion of E-selectin-expressing CHO cells to various quantities of poly-LacNAc gangliosides coated on 96-well plates (Falcon, Becton-Dickinson, Lincoln Park, N.J.). Points represent mean experimental minus control value in the presence of mAb E1C, ±SE of triplicate experiments. .circle-solid.SLe^x -Le^x, Δ Fr. 10-1, .tangle-solidup. Fr. 10-2, .quadrature. Fr. 9, .smallcircle. Fr. 12-2.
Static adhesion assay using 96-well plates: Poly-LacNAc gangliosides with SLe^x -Le^x structure and Frs. 9, 10-1, 10-2 and 12-2, dissolved in 50% ethanol, were serially diluted in 96-well plates (the first well contained 200 ng), and plates were dried at 37° C. for 5 hr. Plates with similar serial dilutions of poly-LacNAc gangliosides were prepared for control cell adhesion in the presence of mAb E1C (see above). E-selectin-expressing CHO cells (Handa et al., Int. J. Oncol. 6:773-781 (1995)) were metabolically labeled with [^3 H] thymidine and incubated for 2 days. Cell suspension (2×10^6 per mL) was prepared by 2 mM EDTA treatment of cultured cells. A 50 μL aliquot of this cell suspension (containing 1×10^5 cells; approximately 5000 cpm) was added to each well and incubated for 1 hr. As a control, EDTA-harvested cells were washed with DMEM and incubated with mAb E1C on ice for 30 min, followed by preparation of cell suspension as above, but containing 10 μg mAb E1C per mL. Aliquots were added to each well and incubated as above. Cells were washed 3× with PBS by inversion of the plate on blotting paper. Adherent cell count as measured by ^3 H activity was determined.
Additional details of the experiment whose data are shown in FIGS. 1A and 1B are as follows: SLe^x -Le^x and poly-LacNAc gangliosides (Frs. 7, 9, 10-1, 10-2, 12-2, 13-1 and 14) dissolved in 50% ethanol were appropriately diluted and coated on wells of 96-well plates (amounts of 25 to 200 ng as shown on abscissa). Wells were dried at 37° C. for 5 hr. Two identical plates (1 and 2) were prepared in this way. To each well of plate 1, 50 μL aliquots of RPMI containing 1×10^5 E-selectin-expressing CHO cells metabolically labeled with [^3 H] thymidine were added. To each well of plate 2, aliquots of the same cell preparation preincubated with anti-E-selectin mAb E1C (10 μg Ig per mL) and suspended in RPMI containing mAb E1C were added. Plates 1 and 2 were incubated for 25 min. and washed with PBS. […] Each well was filled with 200 μL of PBS, carefully shaken, and plates were inverted on blotting paper for 10 min. All non-adherent cells were sedimented and absorbed on the blotting paper. Adherent cells remaining on wells were counted. Cell numbers (expressed on ordinate) were calculated based on measured radioactivity. Solid circle, SLe^x -Le^x without E1C (from plate 1). Open circle, SLe^x -Le^x with E1C (from plate 2). Adhesion values from various poly-LacNAc gangliosides with and without E1C were all near zero and cannot be distinguished on the graph.
Static adhesion assay using 96-well plates: Poly-LacNAc gangliosides with SLe^x -Le^x structure, and Fr. 9, 10-1, 10-2, and 12-2, dissolved in 50% ethanol, were serially diluted in 96-well plates (the first well contained […]), and plates were dried at 37° C. for 5 hr. Plates with similar serial dilutions of poly-LacNAc gangliosides were prepared for control cell adhesion in the presence of mAb E1C […] (see above). E-selectin-expressing CHO cells (Handa et al., 1995, Int. J. Oncol. 6:773-781) were metabolically labeled with [^3 H]thymidine and incubated for 2 days. Cell suspension (2×10^6 per mL) was prepared by 2 mM EDTA treatment of cultured cells. A 50 μL aliquot of this cell suspension (containing 1×10^5 cells; about 5000 cpm) was added to each well and incubated for 1 hr. As a control, EDTA-harvested cells were washed with DMEM and incubated with mAb E1C (10 μg/ml) on ice for 30 min, followed by preparation of cell suspension as above, but containing 10 μg E1C per mL. Aliquots were added to each well and incubated as above. […]

| Substance | adhesion of E-selectin-expressing CHO cells |
| --- | --- |
| VI^3 NeuAcnLc6 Cer [Fr. 7] | little or no adhesion |
| X^3 NeuAcVII^3 FucnLc10 Cer [Fr. 12-2] | little or no adhesion |
| VIII^3 NeuAcV^3 FucnLc8 Cer [Fr. 10-1] | little or no adhesion |
| VI^3 NeuAcV^3 FucIII^3 FucnLc6 Cer [SLe^x -Le^x, reference compound] | much stronger adhesion than myelorollin (Frs. 13-1 and 14); also recorded: capable of binding E-selectin expressing cells |
| VIII^3 NeuAcIII^3 FucnLc8 Cer [Fr. 10-2] | little or no adhesion |

Same assay, conditions: static conditions; ganglioside coated on 96-well plates (25 to 200 ng); [3H]thymidine-labeled cells; control with mAb E1C; listed as SLE^x -Le^x

| Substance | adhesion of E-selectin-expressing CHO cells |
| --- | --- |
| VI^3 NeuAcV^3 FucIII^3 FucnLc6 Cer [SLe^x -Le^x, reference compound] | bound to E-selectin |
